Test results from US9499495B2, “Quinazolines and azaquinazolines as dual inhibitors of RAS/RAF/MEK/ERK and PI3K/AKT/PTEN/mTOR pathways” (Asana Biosciences, LLC, priority 2013, dated 2016).

Experiments:
pERK in A375 cells = assay: In Cell Western (ICW) assay, pERK in A375 cells; assay type: cell-based; conditions: Homo sapiens, A-375, 3 h treatment
Experimental: Cell lines A375, A2058 and RKO obtained from the ATCC as provided above, were grown, and after attaining ˜80% confluency were trypsinized, centrifuged and resuspended in fresh media. The cells were seeded at the specified density (20,000 to 50,000) in a 96-well format black-well clear bottom plate (Corning) and incubated overnight at 37° C. in a 5% CO2 incubator. The next day, compound dilutions of test compounds were prepared in 100% DMSO followed by dilutions in respective media. Treatment of test compounds was performed for 3 h at 37° C. in 5% CO2 incubator. Following 3 h drug treatment, the conditional media was discarded and the cells were washed once with cPBS (PBS containing 0.1% magnesium chloride hexahydrate and 0.1% anhydrous calcium chloride) and fixed with 4% paraformaldehyde in cPBS for 1 h at rt. After fixing, the cells were given three washes using cPBST (cPBS containing 0.1% Triton™ X-100 reagent) and then blocked using blocking solution (5% skimmed milk powder or 5% BSA prepared in cPBST) for 2 h at rt with shaking at 300 rpm. The cells were again washed thrice with cPBST and incubated with primary antibody phospho-p44/42 MAPK(Erk1/2)(Thr202/204) antibody (Cell Signaling, Catalog # 9101L), phospho S6 ribosomal protein (Cell Signaling, Catalog #4858L), phospho AKT (Thr 308) (Cell Signaling, Catalog #9275) or phospho AKT (Ser 473) (Cell Signaling, Catalog #4060L) in specified dilutions (1:500-1:2500), prepared in respective blocking solutions, in a racker overnight at 4° C. The next day, the cells were washed with 1× Delfia® wash buffer (4×1 wash) and incubated with secondary antibody (Delfia®-Eu-N1 labeled anti-rabbit antibody; PerkinElmer, Catalog #AD0105; dilutions: 1:2000 to 1:6000 in Delfia® assay buffer (PerkinElmer, Catalog #1244-111)) for 2 h at rt in the dark at 300 rpm. The cells were then given four washes with 1× Delfia® wash buffer and incubated with Wallac Delfia® Enhancement solution (100 μL; PerkinElmer, Catalog #1244-105) for 20 min at rt in the dark at 300 rpm. The fluorescence emission was then read at 615 nm with an excitation wavelength of 340 nm using a Victor V5 Fluorometer (Perkin Elmer, US). The cells were then washed once with 1×cPBS and incubated with 100 μL of 0.5 mg/mL of Hoechst 33258 dye prepared in cPBS and read at 460 nm with 355 nm excitation, thereby evaluating the correction factor.
The % inhibition for the test compounds of formula (I) (new chemical entities (NCEs)) was calculated keeping DMSO control as 0% and the IC50 values were determined using sigmoidal dose response curve fit in GraphPad Prism® v5 software.

mTOR kinase = target: T1, mTOR kinase (Homo sapiens, UniProt P42345); assay: mTOR kinase TR-FRET assay; assay type: biochemical
T1 construct: purchased Millipore, US
Experimental: Compound inhibition for mTOR kinase was determined by homogeneous TR-FRET assay using ULight-p70 S6K (Thr 389) peptide as substrate. mTOR enzyme (Millipore, US; […]) was used in the assay. The reaction buffer was HEPES (50 mM, pH 7.5), EGTA (1 mM), and MnCl2 (3 mM). Test compound was pre-incubated with mTOR for 30 min followed by 50 nM ULight-p70 S6K (Thr 389) peptide along with ATP (20 μM).
After incubating the reaction mixture for 30 min, Eu-labeled anti-phospho-substrate antibody (1 nM, Perkin Elmer, USA) was added. Fluorescence emission at […] was measured upon excitation at 340 nm. The compound dilution was carried out in 100% DMSO followed by a buffer dilution. The kinase reaction was incubated for 1 h at rt followed by the addition of substrate-ATP mix and incubated at rt for 1 h. The reaction was terminated by the addition of EDTA followed by the addition of detection mix. IC50 values were determined using a sigmoidal dose response curve fit, GraphPad Prism® v5 software.

B-RAFV600E = target: T2, B-RAFV600E (Homo sapiens, UniProt P15056, V600E); assay: B-RAFV600E radiometric assay; assay type: biochemical; conditions: read-out: Kinase assay B-Raf
T2 construct: purchased Millipore, USA 14-557
Experimental: Compound inhibition for B-RAFV600E was determined through radiometric assay using a BRAF enzyme (Catalog No. 14-557, Millipore, USA) and MEK-K97M protein as a substrate (Catalog No. 0785-0000-1, ProqQinase GmbH, Germany). The B-RAF kinase catalyzes the phosphorylation of MEK protein in the presence of gamma ATP (PLC-101, Jonaki, CCMB, Hyderabad), cold ATP and Mg^2+.
The phosphorylated protein product is detected by the scintillation counter Topcount® machine (Perkin Elmer). This assay has been adapted from the method previously reported by Yeh et al. (2007, Clinical Cancer Research; 13, 1576-1583). The assay measures the B-RAF mediated transfer of 32P from the gamma position of radiolabeled ATP onto MEK1-KD. The labeled phosphorylated protein was measured in MicroBeta® Trilux Counter (Perkin Elmer). The assay was validated with reference compounds RAF1 Kinase Inhibitor I and ZM 336372 inhibitor which are reported to be inhibitors of B-RAF enzyme (Lackey, 2000, Medicinal Chemistry Letters; 10(3):223-226; Kupcho, “Fluorescent High throughput kinase cascade assays for inhibitor characterization, RAF-MEK-ERK pathway, www.invitrogen.com, and Hall-Jackson, 1999, Chemical Biology; 6(8):559-568). B-RAF enzyme mixture (13 μL) was added to compound wells containing 2 μL of the NCE in 1% DMSO and incubated for 45 min at rt on a shaking incubator at 300 rpm. MEK-K97M (0.5 μg) and cold ATP to a final concentration of 5 μM, and hot ATP 0.1 μCi in a volume of 10 μL was added to each well and incubated for 2 h at rt on a shaking incubator at 300 rpm. The reaction was stopped by addition of […] (13 μL) containing ATP (1 mM: 495 μL 1N HCl and 5 μL 100 mM ATP). Aliquot (30 μL) was then transferred to the center of a 2 cm×2 cm P81 paper. P81 paper was washed 8×5 min each with ortho-phosphoric acid (0.5%). P81 papers are washed twice with acetone for […] Assay squares were allowed to dry for […] at 37° C. P81 paper are transferred to Optiplate™ (Perkin Elmer) and counted in a Topcount® counter (Perkin Elmer). Data was plotted against the compound concentration to generate dose-response curves and IC50 values were determined using a sigmoidal dose response curve fit GraphPad Prism® v5 software.

T2 sequence (P15056 416-766 V600E limits assumed): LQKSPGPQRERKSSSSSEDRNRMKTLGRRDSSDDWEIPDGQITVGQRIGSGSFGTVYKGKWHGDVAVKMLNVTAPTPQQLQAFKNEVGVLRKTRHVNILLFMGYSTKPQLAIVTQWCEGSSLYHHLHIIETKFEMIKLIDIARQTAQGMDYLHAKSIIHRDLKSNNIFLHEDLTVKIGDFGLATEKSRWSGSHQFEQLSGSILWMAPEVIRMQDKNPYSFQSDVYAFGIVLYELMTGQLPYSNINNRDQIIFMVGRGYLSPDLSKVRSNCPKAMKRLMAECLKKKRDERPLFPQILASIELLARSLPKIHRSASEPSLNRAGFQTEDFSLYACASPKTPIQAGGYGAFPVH
T1 sequence (P42345 1362-2549 limits assumed): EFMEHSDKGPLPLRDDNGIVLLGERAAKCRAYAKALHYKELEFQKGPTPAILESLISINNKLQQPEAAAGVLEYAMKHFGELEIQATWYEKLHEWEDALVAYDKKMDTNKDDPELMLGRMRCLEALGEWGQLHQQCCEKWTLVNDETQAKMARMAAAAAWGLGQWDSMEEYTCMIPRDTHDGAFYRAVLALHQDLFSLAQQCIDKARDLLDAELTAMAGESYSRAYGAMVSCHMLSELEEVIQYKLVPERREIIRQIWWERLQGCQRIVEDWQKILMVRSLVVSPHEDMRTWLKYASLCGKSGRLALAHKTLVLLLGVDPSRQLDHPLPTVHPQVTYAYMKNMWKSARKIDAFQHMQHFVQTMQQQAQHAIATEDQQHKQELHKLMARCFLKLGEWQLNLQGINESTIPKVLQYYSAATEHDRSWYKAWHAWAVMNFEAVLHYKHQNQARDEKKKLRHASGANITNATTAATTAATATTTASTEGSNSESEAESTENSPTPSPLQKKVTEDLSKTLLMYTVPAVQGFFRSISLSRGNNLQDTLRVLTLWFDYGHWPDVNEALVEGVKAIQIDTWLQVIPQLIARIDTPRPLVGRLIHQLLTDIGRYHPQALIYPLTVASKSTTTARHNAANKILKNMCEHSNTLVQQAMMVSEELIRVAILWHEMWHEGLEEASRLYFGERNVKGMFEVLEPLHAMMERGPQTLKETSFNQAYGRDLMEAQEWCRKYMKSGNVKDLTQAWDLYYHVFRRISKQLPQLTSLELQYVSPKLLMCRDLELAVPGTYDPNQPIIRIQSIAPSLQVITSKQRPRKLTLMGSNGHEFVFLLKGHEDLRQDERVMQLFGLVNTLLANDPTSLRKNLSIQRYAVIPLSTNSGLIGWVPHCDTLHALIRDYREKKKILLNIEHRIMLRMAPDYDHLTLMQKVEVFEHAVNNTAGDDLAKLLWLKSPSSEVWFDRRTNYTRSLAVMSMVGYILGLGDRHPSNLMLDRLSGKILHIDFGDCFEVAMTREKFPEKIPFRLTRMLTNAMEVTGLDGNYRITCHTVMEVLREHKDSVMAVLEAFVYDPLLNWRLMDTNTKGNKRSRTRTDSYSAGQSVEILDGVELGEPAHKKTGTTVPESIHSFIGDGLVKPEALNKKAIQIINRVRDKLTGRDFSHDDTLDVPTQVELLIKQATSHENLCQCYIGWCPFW

Row | IC50 (pERK in A375 cells) [nM] | IC50 (mTOR kinase) [nM] | IC50 (B-RAFV600E) [nM] | SMILES
1 | 1000 to 10000 | 1 to 100 | 100 to 1000 | COc1cc(-c2cccc(NS(=O)(=O)c3c(F)cccc3F)c2F)cc2c(N3CCOCC3)nc(-c3ccc(NC(=O)NCCO)cc3)nc12 [Example 12, 2,6-difluoro-N-(2-fluoro-3-(2-(4-(3-(2-hydroxyethyl)ureido)phenyl)-8-methoxy-4-morpholinoquinazolin-6-yl)phenyl)benzenesulfonamide]
2 | 100 to 1000 | 100 to 1000 | 100 to 1000 | COc1cc(-c2cccc(NS(=O)(=O)c3c(F)cccc3F)c2F)cc2c(N3CCOCC3)nc(-c3cnc4[nH]ccc4c3)nc12 [Example 16, 2,6-difluoro-N-(2-fluoro-3-(8-methoxy-4-morpholino-2-(1H-pyrrolo[2,3-b]pyridin-5-yl)quinazolin-6-yl)phenyl)benzenesulfonamide]
3 | 100 to 1000 | 1 to 100 | 100 to 1000 | CNC(=O)Nc1ccc(-c2nc(N3CCOCC3)c3cc(-c4cccc(NS(=O)(=O)CCCF)c4F)cc(OC)c3n2)cc1 [Example 32, 3-fluoro-N-(2-fiuoro-3-(8-methoxy-2-(4-(3-methylureido)phenyl)-4-morpholinoquinazolin-6-yl)phenyl)propane-1-sulfonamide]
4 | 1 to 100 | 100 to 1000 | 1 to 100 | Nc1ccc(-c2nc(N3CCOCC3)c3cc(-c4cccc(NS(=O)(=O)CCCF)c4F)cc(OCC4CC4)c3n2)cn1 [Example 57, N-(3-(2-(6-aminopyridin-3-yl)-8-(cyclopropylmethoxy)-4-morpholinoquinazolin-6-yl)-2-fluorophenyl)-3-fluoropropane-1-sulfonamide]
5 | 100 to 1000 | 1 to 100 | 1 to 100 | Nc1ccc(-c2nc(N3CCOCC3)c3cc(-c4cccc(NS(=O)(=O)CCCF)c4F)cc(OCCO)c3n2)cn1 [Example 58, N-(3-(2-(6-aminopyridin-3-yl)-8-(2-hydroxyethoxy)-4-morpholinoquinazolin-6-yl)-2-fluorophenyl)-3-fluoropropane-1-sulfonamide]
6 | 1 to 100 | 1 to 100 | 1 to 100 | CCNc1ccc(-c2nc(N3CCOCC3)c3nc(-c4cccc(NS(=O)(=O)CCCF)c4F)ccc3n2)cn1 [Example 123, N-(3-(2-(6-(ethylamino)pyridin-3-yl)-4-morpholinopyrido[3,2-d]pyrimidin-6-yl)-2-fluorophenyl)-3-fluoropropane-1-sulfonamide]
7 |  | 100 to 1000 | 1 to 100 | C[C@@H]1COCCN1c1nc(-c2cnc(N)nc2)nc2c(OCCF)cc(-c3cccc(NS(=O)(=O)CCCF)c3F)cc12 [Example 141, (R)-N-(3-(2-(2-aminopyrimidin-5-yl)-8-(2-fluoroethoxy)-4-(3-methylmorpholino)quinazolin-6-yl)-2-fluorophenyl)-3-fluoropropane-1-sulfonamide]
8 |  | 100 to 1000 | 1 to 100 | C[C@@H]1COCCN1c1nc(-c2cnc(N)c(F)c2)nc2c(OCCF)cc(-c3cccc(NS(=O)(=O)CCCF)c3F)cc12 [Example 142, (R)-N-(3-(2-(6-amino-5-fluoropyridin-3-yl)-8-(2-fluoroethoxy)-4-(3-methylmorpholino)quinazolin-6-yl)-2-fluorophenyl)-3-fluoropropane-1-sulfonamide]
9 |  | 100 to 1000 | 1 to 100 | COc1cc(-c2cccc(NS(=O)(=O)CCCF)c2F)cc2c(N3CCOC[C@H]3C)nc(-c3cnc(N)cn3)nc12 [Example 143, (R)-N-(3-(2-(5-aminopyrazin-2-yl)-8-methoxy-4-(3-methylmorpholino)quinazolin-6-yl)-2-fluorophenyl)-3-fluoropropane-1-sulfonamide]
10 |  | 100 to 1000 | 1 to 100 | COc1cc(-c2cccc(NS(=O)(=O)CCCF)c2F)cc2c(N3CCOC[C@H]3C)nc(-c3cnc(N)cc3C#N)nc12 [Example 144, (R)-N-(3-(2-(6-amino-4-cyanopyridin-3-yl)-8-methoxy-4-(3-methylmorpholino)quinazolin-6-yl)-2-fluorophenyl)-3-fluoropropane-1-sulfonamide]
